Experimental data from the supplement of paper PMC10307832.

Key:
Assay in all cases: relative viability (nuclei count vs DMSO), 5 days (fraction); higher = more cells survive
[1] = compound: Cc1ccc2nc(NCCN)c3ncc(C)n3c2c1 + CS(=O)(=O)N1CCN(Cc2cc3nc(-c4cccc5[nH]ncc45)nc(N4CCOCC4)c3s2)CC1 [Pictilisib] (partner 1 µM)
Procedure, shortened: (§1)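 Relative viability was taken as the ratio of nuclei in treated wells to nuclei in vehicle wells. Lung cancer cell lines in 1536-well plates received compounds by pin tool one day after seeding, either one drug alone or a fixed anchor-drug dose plus five library-drug doses (not always all listed) in √10 steps. Nuclei were counted on 4× images after 5 days of treatment, and values are medians of duplicate plates.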

Salubrinal + Phenformin = compound: O=C(/C=C/c1ccccc1)NC(NC(=S)Nc1cccc2cccnc12)C(Cl)(Cl)Cl [Salubrinal] + N=C(N)NC(=N)NCCc1ccccc1 [Phenformin] (partner 250 µM)
Procedure, shortened: as §1

[2] = compound: Cc1ccc2nc(NCCN)c3ncc(C)n3c2c1 + NC(=O)Nc1cc(-c2cccc(F)c2)sc1C(=O)N[C@H]1CCCNC1 [AZD7762] (partner 0.2 µM)
Procedure, shortened: as §1

[3] = compound: Cc1ccc2nc(NCCN)c3ncc(C)n3c2c1 + CC(=O)Nc1cccc(-n2c(=O)n(C3CC3)c(=O)c3c(Nc4ccc(I)cc4F)n(C)c(=O)c(C)c32)c1 [Trametinib] (partner 0.02 µM)
Procedure, shortened: as §1

Row | Cell Line | relative viability ([1]; first compound 0.04 µM) | relative viability ([1]; first compound 0.1265 µM) | relative viability ([1]; first compound 0.4 µM) | relative viability ([1]; first compound 1.265 µM) | relative viability ([1]; first compound 4 µM) | relative viability (Salubrinal + Phenformin; first compound 0.08 µM) | relative viability (Salubrinal + Phenformin; first compound 0.253 µM) | relative viability (Salubrinal + Phenformin; first compound 0.8 µM) | relative viability (Salubrinal + Phenformin; first compound 2.53 µM) | relative viability (Salubrinal + Phenformin; first compound 8 µM) | relative viability ([2]; first compound 0.04 µM) | relative viability ([2]; first compound 0.1265 µM) | relative viability ([2]; first compound 0.4 µM) | relative viability ([2]; first compound 1.265 µM) | relative viability ([2]; first compound 4 µM) | relative viability ([3]; first compound 0.04 µM) | relative viability ([3]; first compound 0.1265 µM) | relative viability ([3]; first compound 0.4 µM) | relative viability ([3]; first compound 1.265 µM) | relative viability ([3]; first compound 4 µM)
1 | LC-2-ad | 0.504 | 0.683 | 0.439 | 0.429 | 0.423 | 0.65 | 0.609 | 0.744 | 0.621 | 0.596 | 0.86 | 0.806 | 0.822 | 0.86 | 0.795 | 0.927 | 0.963 | 0.881 | 0.965 | 0.86
2 | NCI-H1915 | 0.969 |  | 0.578 | 0.939 | 0.923 | 0.39 | 0.341 | 0.389 | 0.355 | 0.365 | 0.646 | 0.702 | 0.551 | 0.728 | 0.704 | 0.304 | 0.297 | 0.28 | 0.296 | 0.294
3 | RERF-LC-KJ | 0.511 | 0.433 | 0.44 | 0.542 | 0.501 | 0.442 | 0.39 | 0.414 | 0.408 | 0.413 | 1.09 | 0.934 | 0.828 | 0.942 | 0.838 | 0.857 | 0.805 | 0.888 | 0.86 | 0.828
4 | LXF-289 | 0.912 | 0.795 | 0.799 | 0.765 | 0.723 | 0.542 | 0.451 | 0.555 | 0.504 | 0.502 | 1.19 | 1.1 | 1.08 | 1.06 | 1.12 | 0.669 | 0.629 | 0.696 | 0.645 | 0.663
5 | PC-14 | 0.753 | 0.736 | 0.757 | 0.481 | 0.583 | 0.696 | 0.551 | 0.576 | 0.677 | 0.687 | 0.388 | 0.298 | 0.239 | 0.399 | 0.287 | 0.779 | 0.706 | 0.742 | 0.647 | 0.327
6 | NCI-H650 | 0.927 | 0.827 | 0.785 | 0.767 | 0.946 | 0.456 | 0.514 | 0.509 | 0.499 | 0.417 | 0.95 | 0.901 | 0.681 | 0.958 | 1.03 | 1.03 | 0.911 | 1.07 | 0.955 | 0.864
7 | NCI-H1666 | 0.372 | 0.478 | 0.402 | 0.554 | 0.449 | 0.535 | 0.603 | 0.561 | 0.547 | 0.514 | 0.903 | 0.961 | 0.774 | 0.756 | 0.841 | 0.907 | 0.796 | 0.773 | 0.863 | 0.8
8 | NCI-H2085 | 0.515 | 0.436 | 0.429 | 0.551 | 0.422 | 0.68 | 0.634 | 0.682 | 0.749 | 0.665 | 1.06 | 0.996 | 0.916 | 0.952 | 1 | 1.03 | 0.63 | 0.502 | 0.491 | 0.499
